Experimental data reported in ChEMBL document CHEMBL1201862, “PubChem BioAssay data set” (2004).
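48-hour exposure; five concentrations; linearly interpolated endpoints. GI50: concentration for 50% inhibition of growth.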 Active and inactive are the calls of the source. Cut-off read from the data, not from the text of the source: active = GI50 up to about 1.1 µM and inactive = higher.

How the values were obtained:
Assay in all cases: DTP human tumour cell line panel, 48 h
[1] = system: KM-20L2
[2] = system: DMS-273
[3] = system: M19-MEL
[4] = system: SNB-78
[5] = system: RXF 631
[6] = system: DMS-114
[7] = system: HOP-18
[8] = system: XF498
[9] = system: DLD-1

Measured: GI50

C=C1C(=O)OC2/C=C(\C)C(O)/C=C\C(C)(O)CC(OC(=O)/C(C)=C/C)C12 (configuration not stated)
inactive: [1] 13.2 µM | [2] 16.7 µM | [3] 17.5 µM | [4] 34.2 µM | [5] 38.2 µM | [6] > 48 µM | [7] > 74.8 µM | [8] 29.9 µM | [9] 13.2 µM

C[N+](C)(C)CC(=O)N/N=C(\C(=O)NC1=C(Cl)C(=O)c2ccccc2C1=O)C(C#N)c1csc(-c2ccc([N+](=O)[O-])cc2)n1 (configuration not stated)
inactive: [1] > 100 µM | [2] > 100 µM | [3] > 100 µM | [4] > 100 µM | [5] > 100 µM | [6] > 100 µM | [7] > 100 µM | [8] > 100 µM | [9] > 100 µM

C[C@]12CCc3nonc3C1CC[C@@H]1C2CC[C@@]2(C)C1CC[C@@H]2O (some centres not stated)
inactive: [1] > 100 µM | [2] > 100 µM | [3] > 100 µM | [4] > 100 µM | [5] > 100 µM | [6] > 100 µM | [7] > 100 µM | [8] > 100 µM | [9] > 100 µM
